Results reported in patent US20170325453A1, “Herbicidal Mixtures for Controlling Herbicide-Resistant Dicotyledonous Plants” (priority 2014, published 2017).

Legend:
Assay type in all cases: in vivo
[1] = system: Trichachne insularis (Digitaria insularis); test: Example 2: visual control of Trichachne insularis (Digitaria insularis), post emergence (Table 16); details: visual control 0-100%, dose per numbered treatment
Procedure: (§1) The study was carried out in Brazil.
(§2) All treatments were applied in established weeds, post emergence, before weeds flowering. The treatments were applied using backpressure equipment (nozzles TEEJET8002) with a water consumption of 150 liters per hectare, 1.2 BAR.
(§3) 14, 21, 28, 35 and 42 days after application (“DAA”) evaluations were carried out, i.e. measuring the control of Trichachne insularis (Digitaria insularis) and its regrowth. The assessment consisted in a visual control level of weeds in which 0% related to absence of control and 100% to total control of weeds. The regrowth were assessed by comparing the emergence of new tillers in treatments versus the emergence of new tillers in check (non-treated control).
(§4) An analysis was carried out for viability rates applied through a variance analysis and a mean comparison test of Student—Newman-Keuls ([…]) with the ARM® statistical analysis package.

[2] = system: Trichachne insularis (Digitaria insularis); test: Example 2: regrowth of D. insularis, emergence of new tillers versus non-treated check (Table 17); set-up: scale not given here; details: post emergence; for regrowth of D. insularis 35 DAA: 35 days after application; for regrowth of D. insularis 42 DAA: 42 days after application
Procedure: as §1, §2, §3, §4

Conyza bonariensis = test: Example 3: control of Conyza bonariensis, viable weeds versus control plot, synergy by Colby; set-up: key: % control, viable weeds vs. untreated control plot; details: weeds 20 cm height at application
Text: Synergism can be described as an interaction where the combined effect of two or more compounds is greater than the sum of the individual effects of each of the compounds. The presence of a synergistic effect in terms of percent control, between two mixing partners (X and Y) can be calculated using the Colby equation (Colby, S. R., 1967, Calculating Synergistic and Antagonistic Responses in Herbicide Combinations, Weeds, 15, 21-22):
When the observed combined control effect is greater than the expected (calculated) combined control effect (E), then the combined effect is synergistic. The synergistic effect may also be present when the observed combined control effect is equal to the expected (calculates) combined control effect, especially when control values over 90 are calculated.
Analogously, the Colby's equation can be used to determine synergism of 3-way and higher mixtures:
as §1
The applications carried out by a back pressure sprayer with T-jet nozzles (XR-110.02) covering 200 liters per hectare. At the time of application, Conyza bonariensis weeds were 20 cm height. The results assessed by the comparison between viable weeds at the control plot and the viable weeds at the treatments plots. To the experiment, the plot consist of a 20 m2 area (5 meters length and 4 meters width).
The synergy was calculated by Colby formula and it expansion for three-way mixtures

## CCSC(C)CC1CC(=O)C(/C(CC)=N/OC/C=C/Cl)=C(O)C1 (racemic) [Clethodim, (RS)-2-[(E)-1-[(E)-3-chloroallyloxyimino]propyl]-5-[2-(ethylthio)propyl]-3-hydroxycyclohex-2-en-1-one]
[1]
  % of control, 28 DAA, Proved: 62.5%
  % of control, 35 DAA, Proved: 60%
  % of control, 42 DAA, Proved: 52.5%
[2]
  regrowth of D. insularis 35 DAA: 28
  regrowth of D. insularis 42 DAA: 33.75

## CC(C)N(C)S(=O)(=O)NC(=O)c1cc(-n2c(=O)cc(C(F)(F)F)n(C)c2=O)c(F)cc1Cl [Saflufenacil, N′-{2-chloro-4-fluoro-5-[1,2,3,6-tetrahydro-3-methyl-2,6-dioxo-4-(trifluoromethyl)pyrimidin-1-yl]benzoyl}-N-isopropyl-N-methylsulfannide]
[1]; listed as 05. Saflufenacil
  % of control, 28 DAA, Proved: 5%
  % of control, 35 DAA, Proved: 5%
[1]; listed as 06. Saflufenacil
  % of control, 28 DAA, Proved: 6.25%
  % of control, 35 DAA, Proved: 6.25%
[1]
  % of control, 42 DAA, Proved: 2.5%
[2]; listed as 05. Saflufenacil
  regrowth of D. insularis 35 DAA: 63.75
  regrowth of D. insularis 42 DAA: 72.5
[2]; listed as 06. Saflufenacil
  regrowth of D. insularis 35 DAA: 66.5
  regrowth of D. insularis 42 DAA: 78.75
Conyza bonariensis; listed as 4 Saflufenacil
  Control of Conyza bonariensis 7 DAA Field Results: 60.00
  Control of Conyza bonariensis 15 DAA Field Results: 56.25
Conyza bonariensis; listed as 5 Saflufenacil
  Control of Conyza bonariensis 7 DAA Field Results: 86.25
  Control of Conyza bonariensis 15 DAA Field Results: 73.75

## O=C(O)CNCP(=O)(O)O [Glyphosate, N-(phosphonomethyl)glycine]
[1]
  % of control, 28 DAA, Proved: 8.75%
  % of control, 35 DAA, Proved: 6.25%
  % of control, 42 DAA, Proved: 3.75%
[2]
  regrowth of D. insularis 35 DAA: 61.25
  regrowth of D. insularis 42 DAA: 67.5
Conyza bonariensis; listed as 1 Glyphosate
  Control of Conyza bonariensis 7 DAA Field Results: 32.50
  Control of Conyza bonariensis 15 DAA Field Results: 65.00
Conyza bonariensis; listed as 3 Glyphosate
  Control of Conyza bonariensis 7 DAA Field Results: 15.00
  Control of Conyza bonariensis 15 DAA Field Results: 27.50
